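Five concentrations, 48 hours, 96-well plates. Definition used: TGI = concentration required for complete inhibition of growth.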
Columns and labels:
Test in all cases: growth of human tumour cells (NCI), 48 h
[1] = test system: SR leukemia
[2] = test system: PC-3 prostate
[3] = test system: SK-MEL-28 melanoma
[4] = test system: NCI-H522 lung
[5] = test system: UACC-62 melanoma
[6] = test system: SN12C renal
[7] = test system: A498 renal
[8] = test system: RXF 393 renal
[9] = test system: CCRF-CEM leukemia
[10] = test system: SF-268 CNS
[11] = test system: UO-31 renal
[12] = test system: IGROV1 ovarian
[13] = test system: NCI-H226 lung
[14] = test system: A549 NSCLC
[15] = test system: ACHN renal
[16] = test system: M14 melanoma
[17] = test system: HS 578T breast
[18] = test system: HL-60(TB) leukemia
[19] = test system: NCI-H23 lung
[20] = test system: RPMI-8226 leukemia
[21] = test system: MALME-3M melanoma
[22] = test system: HCT-15 colon
[23] = test system: UACC-257 melanoma
[24] = test system: SK-OV-3 ovarian
[25] = test system: MDA-N
[26] = test system: OVCAR-8 ovarian
[27] = test system: BT-549 breast
[28] = test system: SW-620 colon
[29] = test system: OVCAR-4 ovarian
[30] = test system: MCF7 breast
[31] = test system: SNB-75 CNS
[32] = test system: TK-10 renal
[33] = test system: HT29 colon
[34] = test system: NCI/ADR-RES ovarian
[35] = test system: LOX IMVI melanoma
[36] = test system: EKVX NSCLC
[37] = test system: CAKI-1 renal
[38] = test system: T-47D breast
[39] = test system: DU-145 prostate
[40] = test system: COLO 205 colon
[41] = test system: SNB-19 CNS
[42] = test system: OVCAR-5 ovarian
[43] = test system: NCI-H460 lung
[44] = test system: HCC-2998 colon
[45] = test system: MOLT-4 leukemia
[46] = test system: KM12 colon
[47] = test system: HCT-116 colon
[48] = test system: OVCAR-3 ovarian
[49] = test system: K-562 leukemia
[50] = test system: HOP-62 NSCLC
[51] = test system: SF-295 CNS
[52] = test system: 786-0 renal
[53] = test system: SK-MEL-5 melanoma
[54] = test system: SF-539 CNS
[55] = test system: SK-MEL-2 melanoma
[56] = test system: MDA-MB-231 breast
[57] = test system: U251 CNS
[58] = test system: HOP-92 NSCLC
[59] = test system: MDA-MB-435

## Nc1cc2c3c(c1)Oc1cc(N)cc4c1C3c1c(cc(N)cc1O4)O2
[1]
  TGI: 50 µM
[2]
  TGI: 98.3 µM
[3]
  TGI: > 100 µM
[4]
  TGI: 45.5 µM
[5]
  TGI: > 69.6 µM
[6]
  TGI: 49.2 µM
[7]
  TGI: > 100 µM
[8]
  TGI: 29 µM
[9]
  TGI: 81.5 µM
[10]
  TGI: 25 µM
[11]
  TGI: > 100 µM
[12]
  TGI: > 44.9 µM
[13]
  TGI: 12.8 µM
[14]
  TGI: > 100 µM
[15]
  TGI: > 51.3 µM
[16]
  TGI: > 100 µM
[17]
  TGI: > 100 µM
[18]
  TGI: 52.6 µM
[19]
  TGI: > 66.5 µM
[20]
  TGI: 52.2 µM
[21]
  TGI: 22.8 µM
[22]
  TGI: > 31.6 µM
[23]
  TGI: > 85.1 µM
[24]
  TGI: > 100 µM
[25]
  TGI: 59.5 µM
[26]
  TGI: 34 µM
[27]
  TGI: 51.3 µM
[28]
  TGI: > 100 µM
[29]
  TGI: > 100 µM
[30]
  TGI: > 60 µM
[31]
  TGI: > 48.8 µM
[32]
  TGI: > 100 µM
[33]
  TGI: > 63.1 µM
[34]
  TGI: 26.9 µM
[35]
  TGI: 41.6 µM
[36]
  TGI: > 47.7 µM
[37]
  TGI: 36.1 µM
[38]
  TGI: > 93.2 µM
[39]
  TGI: 46.7 µM
[40]
  TGI: 34.3 µM
[41]
  TGI: > 100 µM
[42]
  TGI: > 100 µM
[43]
  TGI: > 100 µM
[44]
  TGI: > 100 µM
[45]
  TGI: > 100 µM
[46]
  TGI: > 84.2 µM
[47]
  TGI: 75.5 µM
[48]
  TGI: 51.6 µM
[49]
  TGI: > 100 µM
[50]
  TGI: > 88.1 µM
[51]
  TGI: > 96.6 µM
[52]
  TGI: > 86.5 µM
[53]
  TGI: 27.3 µM
[54]
  TGI: 46.2 µM
[55]
  TGI: > 81.9 µM
[56]
  TGI: 53.8 µM
[57]
  TGI: > 100 µM
[58]
  TGI: > 100 µM
[59]
  TGI: > 86.9 µM

## Cc1ccc(S(=O)(=O)OC2CCN(C)CC2)cc1
[1]
  TGI: 49.9 µM
[2]
  TGI: > 100 µM
[3]
  TGI: > 100 µM
[4]
  TGI: 46.5 µM
[5]
  TGI: > 100 µM
[6]
  TGI: > 100 µM
[8]
  TGI: > 100 µM
[10]
  TGI: > 100 µM
[12]
  TGI: > 100 µM
[14]
  TGI: > 100 µM
[15]
  TGI: > 100 µM
[16]
  TGI: > 100 µM
[17]
  TGI: > 100 µM
[18]
  TGI: 37.3 µM
[19]
  TGI: > 100 µM
[20]
  TGI: 49.8 µM
[21]
  TGI: 37.9 µM
[22]
  TGI: > 100 µM
[23]
  TGI: > 100 µM
[24]
  TGI: > 100 µM
[25]
  TGI: > 100 µM
[26]
  TGI: > 100 µM
[27]
  TGI: > 100 µM
[28]
  TGI: 42 µM
[29]
  TGI: > 100 µM
[30]
  TGI: > 100 µM
[31]
  TGI: > 100 µM
[32]
  TGI: > 100 µM
[33]
  TGI: > 100 µM
[34]
  TGI: > 100 µM
[35]
  TGI: > 100 µM
[36]
  TGI: > 100 µM
[38]
  TGI: 48.6 µM
[39]
  TGI: > 100 µM
[40]
  TGI: 42.3 µM
[41]
  TGI: > 100 µM
[42]
  TGI: > 100 µM
[43]
  TGI: > 100 µM
[45]
  TGI: 36.6 µM
[47]
  TGI: > 100 µM
[48]
  TGI: > 100 µM
[49]
  TGI: 40.4 µM
[50]
  TGI: > 100 µM
[51]
  TGI: > 100 µM
[52]
  TGI: > 100 µM
[53]
  TGI: 44.6 µM
[54]
  TGI: > 100 µM
[55]
  TGI: > 100 µM
[56]
  TGI: > 100 µM
[57]
  TGI: > 100 µM
[58]
  TGI: 42.3 µM
[59]
  TGI: > 100 µM

## CN(C)C(Cc1cnc[nH]1)C(=O)N1CCCC1C(N)=O (configuration not stated)
[1]
  TGI: > 100 µM
[2]
  TGI: > 100 µM
[3]
  TGI: > 100 µM
[4]
  TGI: > 100 µM
[5]
  TGI: > 100 µM
[6]
  TGI: > 100 µM
[7]
  TGI: 98 µM
[8]
  TGI: > 100 µM
[9]
  TGI: > 100 µM
[10]
  TGI: > 100 µM
[11]
  TGI: > 100 µM
[12]
  TGI: > 100 µM
[13]
  TGI: > 100 µM
[14]
  TGI: > 100 µM
[15]
  TGI: > 100 µM
[16]
  TGI: > 100 µM
[17]
  TGI: > 100 µM
[18]
  TGI: > 100 µM
[19]
  TGI: > 100 µM
[20]
  TGI: > 100 µM
[21]
  TGI: > 100 µM
[22]
  TGI: > 100 µM
[24]
  TGI: > 100 µM
[25]
  TGI: > 100 µM
[26]
  TGI: > 100 µM
[27]
  TGI: > 100 µM
[28]
  TGI: > 100 µM
[29]
  TGI: > 100 µM
[30]
  TGI: > 100 µM
[31]
  TGI: > 100 µM
[32]
  TGI: > 100 µM
[33]
  TGI: > 100 µM
[34]
  TGI: > 100 µM
[35]
  TGI: > 100 µM
[36]
  TGI: > 100 µM
[37]
  TGI: > 100 µM
[38]
  TGI: > 100 µM
[39]
  TGI: > 100 µM
[40]
  TGI: > 100 µM
[41]
  TGI: > 100 µM
[42]
  TGI: > 100 µM
[43]
  TGI: > 100 µM
[44]
  TGI: > 100 µM
[45]
  TGI: > 100 µM
[46]
  TGI: > 100 µM
[47]
  TGI: > 100 µM
[48]
  TGI: > 100 µM
[49]
  TGI: > 100 µM
[50]
  TGI: > 100 µM
[51]
  TGI: > 100 µM
[52]
  TGI: > 100 µM
[53]
  TGI: > 100 µM
[56]
  TGI: > 100 µM
[57]
  TGI: > 100 µM
[58]
  TGI: > 100 µM
[59]
  TGI: > 100 µM

## COc1cc(Cc2cc3c(c(C(=O)O)c2Br)OCO3)cc(OC)c1OC
[1]
  TGI: 89 µM
[2]
  TGI: > 100 µM
[3]
  TGI: > 100 µM
[5]
  TGI: > 100 µM
[6]
  TGI: > 100 µM
[7]
  TGI: > 100 µM
[9]
  TGI: > 100 µM
[11]
  TGI: > 100 µM
[12]
  TGI: > 100 µM
[13]
  TGI: > 100 µM
[14]
  TGI: > 100 µM
[15]
  TGI: > 100 µM
[16]
  TGI: > 100 µM
[17]
  TGI: > 100 µM
[18]
  TGI: 62.2 µM
[19]
  TGI: > 100 µM
[21]
  TGI: > 100 µM
[22]
  TGI: > 100 µM
[23]
  TGI: > 100 µM
[24]
  TGI: > 100 µM
[25]
  TGI: 67 µM
[26]
  TGI: > 100 µM
[27]
  TGI: > 100 µM
[28]
  TGI: > 100 µM
[29]
  TGI: > 100 µM
[30]
  TGI: > 100 µM
[31]
  TGI: > 100 µM
[32]
  TGI: > 100 µM
[33]
  TGI: > 100 µM
[34]
  TGI: > 100 µM
[35]
  TGI: > 100 µM
[36]
  TGI: > 100 µM
[37]
  TGI: > 100 µM
[38]
  TGI: > 100 µM
[39]
  TGI: > 100 µM
[40]
  TGI: > 100 µM
[41]
  TGI: > 100 µM
[42]
  TGI: > 100 µM
[43]
  TGI: > 100 µM
[44]
  TGI: > 100 µM
[45]
  TGI: > 100 µM
[46]
  TGI: > 100 µM
[47]
  TGI: > 100 µM
[48]
  TGI: > 100 µM
[49]
  TGI: > 100 µM
[50]
  TGI: > 100 µM
[51]
  TGI: > 100 µM
[52]
  TGI: > 100 µM
[53]
  TGI: > 100 µM
[54]
  TGI: 91.1 µM
[55]
  TGI: > 100 µM
[56]
  TGI: > 100 µM
[57]
  TGI: > 100 µM
[58]
  TGI: > 100 µM
[59]
  TGI: > 100 µM
